Data as given in ChEMBL document CHEMBL1201862, “PubChem BioAssay data set” (2004).
Each block holds one compound with its values, some of them ahead of it. Activity calls are given as the source filed them. Rule as the data show it, for most assays here: actives have a measured IC50 and inactives only a lower limit.

Key:
[1] = target: Intestinal-type alkaline phosphatase (Mus musculus, UniProt P24822); assay: PubChem AID 488785; type: functional
[2] = target: T1, Alkaline phosphatase, tissue-nonspecific isozyme (Homo sapiens, UniProt P05186); assay: TNAP enzyme inhibition by screening hits, dose response, selectivity assay for mouse IAP inhibitor project, biochemical, human TNAP, uHTS hits (AID 488906); type: functional
T1 sequence (P05186 whole entry): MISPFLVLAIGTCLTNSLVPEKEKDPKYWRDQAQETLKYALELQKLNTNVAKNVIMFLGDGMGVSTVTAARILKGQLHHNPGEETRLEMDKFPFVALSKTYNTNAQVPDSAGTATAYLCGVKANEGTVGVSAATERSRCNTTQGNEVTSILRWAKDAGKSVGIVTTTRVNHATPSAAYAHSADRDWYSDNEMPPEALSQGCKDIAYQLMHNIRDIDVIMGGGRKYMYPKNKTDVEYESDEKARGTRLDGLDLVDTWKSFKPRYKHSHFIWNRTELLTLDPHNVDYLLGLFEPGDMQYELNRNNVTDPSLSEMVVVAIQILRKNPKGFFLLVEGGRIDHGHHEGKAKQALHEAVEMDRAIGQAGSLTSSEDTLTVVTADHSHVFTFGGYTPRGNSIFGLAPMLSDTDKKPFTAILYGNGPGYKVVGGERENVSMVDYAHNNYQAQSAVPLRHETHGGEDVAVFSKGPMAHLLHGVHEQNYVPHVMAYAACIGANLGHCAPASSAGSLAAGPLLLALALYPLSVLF

[3] = target: Intestinal-type alkaline phosphatase (Homo sapiens, UniProt P09923); assay: inhibition of human intestinal alkaline phosphatase – biochemical, dose response (AID 488876); type: functional
Chain of Intestinal-type alkaline phosphatase (Homo sapiens, UniProt P09923) (P09923 whole entry): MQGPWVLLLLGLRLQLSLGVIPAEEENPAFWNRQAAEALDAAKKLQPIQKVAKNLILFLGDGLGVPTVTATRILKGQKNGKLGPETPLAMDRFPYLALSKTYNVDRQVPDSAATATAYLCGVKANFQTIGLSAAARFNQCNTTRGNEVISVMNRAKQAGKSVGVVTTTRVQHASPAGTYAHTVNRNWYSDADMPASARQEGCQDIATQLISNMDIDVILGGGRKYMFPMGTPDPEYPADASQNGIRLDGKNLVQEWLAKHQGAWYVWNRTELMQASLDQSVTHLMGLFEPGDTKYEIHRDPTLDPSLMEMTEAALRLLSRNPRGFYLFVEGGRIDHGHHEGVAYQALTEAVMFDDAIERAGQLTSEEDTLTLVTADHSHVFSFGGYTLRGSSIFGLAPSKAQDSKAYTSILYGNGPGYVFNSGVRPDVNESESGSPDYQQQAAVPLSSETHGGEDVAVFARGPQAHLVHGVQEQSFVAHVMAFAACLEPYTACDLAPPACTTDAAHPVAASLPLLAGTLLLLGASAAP

Tumor necrosis factor = Tumor necrosis factor (Homo sapiens, UniProt P01375); assay: TNFa-triggered NF-kB activation inhibitors, SAR follow-up, cell-based, revised (AID 2337); type: functional
Chain of Tumor necrosis factor (P01375 whole entry, the tested form may be a part): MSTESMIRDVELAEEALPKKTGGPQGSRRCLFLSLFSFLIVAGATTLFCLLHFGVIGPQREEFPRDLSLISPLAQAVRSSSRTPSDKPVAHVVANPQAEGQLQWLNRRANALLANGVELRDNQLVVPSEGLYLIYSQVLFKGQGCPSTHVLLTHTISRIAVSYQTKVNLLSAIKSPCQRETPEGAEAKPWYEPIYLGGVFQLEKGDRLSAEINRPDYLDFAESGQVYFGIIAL

[4] = target: T2, Nucleotide-binding oligomerization domain-containing protein 1 (Homo sapiens, UniProt Q9Y239); assay: NOD1 signaling inhibitors, SAR follow-up, revised (AID 2333); type: functional
T2 sequence (Q9Y239 whole entry): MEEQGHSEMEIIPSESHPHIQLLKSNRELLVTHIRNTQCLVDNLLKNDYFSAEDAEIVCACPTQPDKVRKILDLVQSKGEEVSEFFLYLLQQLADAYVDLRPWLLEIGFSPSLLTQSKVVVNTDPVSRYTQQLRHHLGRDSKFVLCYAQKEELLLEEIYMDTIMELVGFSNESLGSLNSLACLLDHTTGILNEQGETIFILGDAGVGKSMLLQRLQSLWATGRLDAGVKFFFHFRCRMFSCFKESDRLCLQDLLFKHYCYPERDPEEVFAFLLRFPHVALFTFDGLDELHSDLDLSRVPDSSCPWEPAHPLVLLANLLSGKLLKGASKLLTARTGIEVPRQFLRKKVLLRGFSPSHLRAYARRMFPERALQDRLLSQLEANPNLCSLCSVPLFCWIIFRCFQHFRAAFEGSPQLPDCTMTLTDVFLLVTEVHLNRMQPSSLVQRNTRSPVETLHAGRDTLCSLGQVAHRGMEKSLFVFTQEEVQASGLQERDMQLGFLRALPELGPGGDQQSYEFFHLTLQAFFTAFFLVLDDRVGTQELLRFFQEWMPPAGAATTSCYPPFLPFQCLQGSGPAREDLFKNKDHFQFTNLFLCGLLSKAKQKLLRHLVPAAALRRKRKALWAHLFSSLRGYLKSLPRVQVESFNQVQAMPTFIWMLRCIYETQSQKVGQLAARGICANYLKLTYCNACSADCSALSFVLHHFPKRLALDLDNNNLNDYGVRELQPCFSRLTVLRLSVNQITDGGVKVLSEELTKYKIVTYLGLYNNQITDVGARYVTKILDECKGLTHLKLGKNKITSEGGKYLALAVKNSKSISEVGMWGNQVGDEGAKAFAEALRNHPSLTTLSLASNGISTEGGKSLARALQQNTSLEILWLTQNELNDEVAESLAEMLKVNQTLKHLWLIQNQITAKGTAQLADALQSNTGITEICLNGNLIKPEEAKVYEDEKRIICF

HEK293 = assay: cells; conditions: Homo sapiens;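 also: cells exposed to compound for 14 hours overnight before viability readout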
[5] = target: Potassium voltage-gated channel subfamily KQT member 2 (Rattus norvegicus, UniProt O88943); assay: KCNQ2 channel activators, analog series, SAR follow-up, automated patch clamp, KCNQ2-CHO cells (AID 493113); type: functional
Chain of Potassium voltage-gated channel subfamily KQT member 2 (O88943 whole entry): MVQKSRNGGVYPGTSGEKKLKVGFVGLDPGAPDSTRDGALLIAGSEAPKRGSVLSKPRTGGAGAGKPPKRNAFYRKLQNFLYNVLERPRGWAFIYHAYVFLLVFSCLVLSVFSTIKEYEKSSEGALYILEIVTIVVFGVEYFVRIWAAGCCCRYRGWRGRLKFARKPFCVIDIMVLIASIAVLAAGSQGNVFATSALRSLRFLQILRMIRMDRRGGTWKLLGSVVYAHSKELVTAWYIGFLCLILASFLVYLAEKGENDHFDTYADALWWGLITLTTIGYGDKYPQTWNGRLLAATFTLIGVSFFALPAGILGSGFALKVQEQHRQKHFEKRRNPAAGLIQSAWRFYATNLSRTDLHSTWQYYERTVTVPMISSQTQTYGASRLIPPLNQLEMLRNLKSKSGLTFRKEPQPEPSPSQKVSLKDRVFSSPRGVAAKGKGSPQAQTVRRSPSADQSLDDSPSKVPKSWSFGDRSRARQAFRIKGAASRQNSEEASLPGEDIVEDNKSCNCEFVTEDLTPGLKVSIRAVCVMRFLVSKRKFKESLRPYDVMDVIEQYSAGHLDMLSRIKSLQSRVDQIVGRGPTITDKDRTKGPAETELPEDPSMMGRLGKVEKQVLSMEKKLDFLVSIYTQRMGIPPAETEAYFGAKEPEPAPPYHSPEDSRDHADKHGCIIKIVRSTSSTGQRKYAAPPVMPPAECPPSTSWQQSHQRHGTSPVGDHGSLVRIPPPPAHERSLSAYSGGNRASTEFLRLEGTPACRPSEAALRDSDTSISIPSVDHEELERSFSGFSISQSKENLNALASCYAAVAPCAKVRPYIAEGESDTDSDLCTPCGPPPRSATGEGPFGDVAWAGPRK

CAAX prenyl protease 2 = CAAX prenyl protease 2 (Saccharomyces cerevisiae S288c, UniProt Q03530); type: biochemical
Chain of CAAX prenyl protease 2 (Q03530 whole entry): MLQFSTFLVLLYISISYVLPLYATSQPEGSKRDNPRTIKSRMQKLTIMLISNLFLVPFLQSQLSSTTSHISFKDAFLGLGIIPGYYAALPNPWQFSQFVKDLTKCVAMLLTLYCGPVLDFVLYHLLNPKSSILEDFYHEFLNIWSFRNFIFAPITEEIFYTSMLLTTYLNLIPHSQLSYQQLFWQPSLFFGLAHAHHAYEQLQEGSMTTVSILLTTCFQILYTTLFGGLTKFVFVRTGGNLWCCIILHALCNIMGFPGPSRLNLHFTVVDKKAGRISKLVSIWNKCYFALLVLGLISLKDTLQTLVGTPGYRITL

CAAX prenyl protease 1 = CAAX prenyl protease 1 (Saccharomyces cerevisiae S288c, UniProt P47154); assay: Ste24 protease inhibitors, dose response, biochemical, S. cerevisiae, plate reader, cherry-pick (AID 488815)
Chain of CAAX prenyl protease 1 (P47154 whole entry): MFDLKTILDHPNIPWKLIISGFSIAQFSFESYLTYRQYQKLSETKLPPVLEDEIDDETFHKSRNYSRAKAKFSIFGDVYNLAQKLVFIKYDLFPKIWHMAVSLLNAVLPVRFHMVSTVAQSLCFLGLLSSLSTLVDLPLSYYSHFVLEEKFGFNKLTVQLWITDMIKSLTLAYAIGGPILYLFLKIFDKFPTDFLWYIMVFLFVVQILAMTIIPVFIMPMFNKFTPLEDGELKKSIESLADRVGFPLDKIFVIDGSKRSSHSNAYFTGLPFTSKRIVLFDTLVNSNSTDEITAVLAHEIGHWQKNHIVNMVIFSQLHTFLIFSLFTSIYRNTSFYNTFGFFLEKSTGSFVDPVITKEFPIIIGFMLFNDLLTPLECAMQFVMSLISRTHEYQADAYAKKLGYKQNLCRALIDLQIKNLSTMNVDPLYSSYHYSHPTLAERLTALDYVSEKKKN

Chain of Intestinal-type alkaline phosphatase (Mus musculus, UniProt P24822) (P24822 whole entry): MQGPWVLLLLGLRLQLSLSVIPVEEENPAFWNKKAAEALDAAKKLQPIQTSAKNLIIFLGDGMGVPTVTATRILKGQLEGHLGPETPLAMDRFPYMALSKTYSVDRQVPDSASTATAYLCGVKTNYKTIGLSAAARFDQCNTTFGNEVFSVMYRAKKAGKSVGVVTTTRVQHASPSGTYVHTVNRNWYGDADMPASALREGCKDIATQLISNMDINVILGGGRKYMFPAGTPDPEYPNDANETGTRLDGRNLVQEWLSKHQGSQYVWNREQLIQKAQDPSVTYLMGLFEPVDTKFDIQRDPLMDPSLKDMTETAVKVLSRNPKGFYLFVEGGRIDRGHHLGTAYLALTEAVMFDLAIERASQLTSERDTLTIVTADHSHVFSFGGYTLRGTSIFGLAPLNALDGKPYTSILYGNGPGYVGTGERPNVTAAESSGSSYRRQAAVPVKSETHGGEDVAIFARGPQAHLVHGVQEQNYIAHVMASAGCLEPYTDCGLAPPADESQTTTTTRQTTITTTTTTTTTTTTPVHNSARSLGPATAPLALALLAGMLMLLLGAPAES

IC50 [1]: 3.4 µM (active) | IC50 [2]: 31 µM (active) | IC50 [3]: > 100 µM (inactive)
SMILES: Cc1cc(Cn2nc(-c3ccccc3)cc2C(=O)NCc2cccc(C(F)(F)F)c2)on1

SMILES: Cc1ccc([N+](=O)[O-])cc1NC(=O)c1cc(Cl)c2ccccc2c1O
IC50 (Tumor necrosis factor): 0.206 µM (active) | IC50 [4]: 0.17 µM (active) | IC50 (HEK293): 1.17 µM (active)

EC50 [5]: 1.6 µM (active)
SMILES: Cc1cc(C)c(NC(=O)CCc2ccccc2)c(C)c1

AC50 (CAAX prenyl protease 2): 9 µM (active) | AC50 (CAAX prenyl protease 1): > 100 µM (inactive)
SMILES: CCOc1cccc(-c2c(C(=O)N/N=C/c3c(F)cccc3Cl)nnn2-c2nonc2N)c1
